Reference: patent publication US11986446B2, “Method of administration of gamma hydroxybutyrate with monocarboxylate transporters” (priority 2013, dated 2024)
Like-named read-outs stand apart in the source and are kept apart here.

Assays:
healthy male subjects = assay type: in vivo, human
healthy adults = assay: Ibuprofen combined with Xyrem, PD (KSS and CDR System tasks); assay type: in vivo, human
Procedure: The effects of Ibuprofen were evaluated when combined with Xyrem® in a manner similar to the above. […] However, it was observed that renal excretion of Xyrem® doubled upon concomitant administration of Ibuprofen and Xyrem®.

[1] = Phase 1 crossover study of Xyrem with and without divalproex sodium, pharmacokinetics of GHB; assay type: in vivo, human
Text: This study is designed to compare the pharmacokinetic (PK) and pharmacodynamic (PD) endpoints of Xyrem® with and without co-administration of divalproex sodium extended-release tablets. The crossover design allows within-subject comparisons of the PK and PD of Xyrem® dosed alone and in combination with divalproex sodium extended-release tablets. PD parameters include the following: Cognitive Drug Research (CDR) System tasks: Karolinska Sleepiness Scale (KSS), Simple Reaction Time (SRT), Digit Vigilance (DV), Choice Reaction Time (CRT), Tracking and Numeric Working Memory (NWM).
This was a Phase 1, randomized, double-blind, placebo-controlled, five-period, crossover study in healthy male subjects. The study was conducted in approximately 24 healthy subjects to ensure completion of 16 subjects. Following Screening and Baseline procedures, eligible subjects were randomized to receive Xyrem® and Xyrem® placebo in a crossover fashion in Periods 1 and 2; were dosed with divalproex sodium extended-release tablets for 10 consecutive days in Period 3; and while continuing to take divalproex sodium extended-release tablets, were randomized to receive Xyrem® and Xyrem® placebo in a crossover fashion in Periods 4 and 5 (Table 1).
Subjects were randomized to receive two 3 g doses of Xyrem® or Xyrem® placebo 4 hours apart in a crossover fashion at approximately 9 AM (first dose) and 1 PM (second dose) on Days 1 and 3. PK and PD parameters were evaluated during the 24 hours postdose.
Blood samples (4 mL) for sodium oxybate concentrations were collected at predose and at specified time-points up to 12 hours after the first dose of Xyrem® or Xyrem® placebo on Days 1 and 3. A PD Battery including the Karolinska Sleepiness Scale, Simple Reaction Time task, Digit Vigilance task, Choice Reaction Time task, Tracking task, and Numeric Working Memory task was administered at planned timepoints up to X hours after first dose (X hours after second dose), and safety were monitored at specified timepoints on Days 1 and 3 as well as throughout the periods.
All subjects received divalproex sodium extended-release tablets 1250 mg at approximately 8 AM on Days 5 through 14. Blood samples (4 mL) for valproic acid concentrations were collected before the divalproex sodium dose (to determine trough concentration for assessment of steady state) on Days 13 and 14. Safety was monitored at specified timepoints as well as throughout the period.
Subjects continued taking 1250 mg divalproex sodium extended-release tablets at approximately 8 AM on Days 15 through 18. Subjects were also randomized to receive two 3 g doses of Xyrem® or Xyrem® placebo in a crossover fashion at approximately 9 am (first dose) and 1 pm (second dose) on Days 15 and 18. The first dose of Xyrem® or Xyrem® placebo was taken approximately 1 hour after dosing with divalproex sodium extended-release tablets, and the second dose of Xyrem® or Xyrem® placebo was taken 4 hours after the first Xyrem®/Xyrem® placebo dose.
Blood samples (4 mL) to measure plasma sodium oxybate concentrations were collected at pre Xyrem®/Xyrem® placebo dose and at specified timepoints after the first Xyrem® or Xyrem® placebo dose on Days 15 and 18. Blood samples (4 mL) to measure plasma valproic acid concentrations were collected pre divalproex sodium dose and at specified timepoints after the dose of divalproex sodium extended-release tablets on Day 15 and 18. […]

[2] = alcohol dependent patients, oral administration; cited from earlier work
[3] = healthy volunteers; 12.5, 25, and 50 mg/kg; cited from earlier work
[4] = Ibuprofen combined with Xyrem, pharmacokinetics of GHB
[5] = GHB and divalproate concomitantly administered, statistically significant
[6] = GHB co-administered with valproate, attributed to GHB dehydrogenase inhibition

CCCC(CCC)C(=O)O [Divalproex sodium, 2-propylvaleric acid]
effects on cognitive function or sleepiness (healthy male subjects; in vivo): no consistent or notable effects on cognitive function or sleepiness

CC(C)Cc1ccc(C(C)C(=O)O)cc1 (centres unmarked) [Ibuprofen, iso-butyl-propanoic-phenolic acid]
Karolinska Sleepiness Scale, Simple Reaction Time, Digit Vigilance, Choice Reaction Time, Tracking and Numeric Working Memory (healthy adults): No differences were seen

O=C(O)Cc1ccccc1Nc1c(Cl)cccc1Cl [diclofenac, 2-(2,6-dichloranilino) phenylacetic acid]
effect of diclofenac on the effects of Xyrem on Power of Attention, simple and choice reaction time (healthy subjects; co-dosed with Xyrem, during the hour after the first dose of Xyrem): significantly reduced the effects of the compound | effect on sleepiness or cognitive function (healthy subjects; diclofenac alone (50 mg qid + Xyrem placebo)): no effect on sleepiness or cognitive function | interaction on feelings of sleepiness (healthy subjects; diclofenac co-dosed with Xyrem): no interaction | protective effect on subjects ratings of alertness (healthy subjects; diclofenac co-dosed with Xyrem): not seen | impairments (interaction) over the hour following the first dose of Xyrem (healthy subjects; diclofenac co-dosed with Xyrem vs Xyrem alone): impairments being notably smaller | greater cognitive impairment or sleepiness on any measure (healthy subjects; in vivo): no evidence on any measure of greater cognitive impairment or sleepiness

O=C(O)CCCO [Xyrem®, sodium oxybate]
PD effects (healthy male subjects; GHB and divalproate concomitantly administered): more pronounced effects with concomitant administration | sleepiness, attention, working memory and tracking task performance (healthy male subjects; Xyrem alone, two 3 g doses, healthy volunteers): induces sleepiness and produces impairments to attention, working memory and performance on a tracking task | Tracking Distance from Target, change from baseline (healthy male subjects; Xyrem and divalproex sodium together (A+C) vs Xyrem alone (A), at 4 and 8 hours): statistically significant difference by a slightly delayed recovery for the combination | Numeric Working Memory Sensitivity Index, change from baseline (healthy male subjects; Xyrem and divalproex sodium together (A+C) vs Xyrem alone (A), at 4.5 through 8 hours): showed a difference | Continuity of Attention, change from baseline (healthy male subjects; Xyrem and divalproex sodium together (A+C) vs Xyrem alone (A), at 4 hours and 8 hours): slightly delayed recovery for the combination | Digit Vigilance Accuracy, change from baseline (healthy male subjects; Xyrem and divalproex sodium together vs Xyrem alone, at 2.5 and 4 hours): statistically reliably different greater impairment to Xyrem® alone | impairments over time (healthy male subjects; Xyrem dosed with divalproex sodium vs divalproex sodium alone (compared with Xyrem vs its placebo)): more consistent statistically significant impairments over time were seen with the combination | impairments to cognitive function and sleepiness (healthy male subjects; co-administration of Xyrem and divalproex vs Xyrem alone): greater impairments to cognitive function and sleepiness than were seen with Xyrem® alone | Numeric Working Memory Mean Reaction Time, change from baseline (healthy male subjects; in vivo): statistically significant differences at 2.5, 5 and 8 hours when the combination produced greater impairment | Simple Reaction Time Mean, change from baseline (healthy male subjects; in vivo): statistically reliably greater impairments than Xyrem® alone | renal clearance, increased [1, 5]: 30% | systemic exposure (plasma AUC), increased [1, 5]: 26% | AUC, increase [1, 6]: about 15% | Cmax, increase [1, 6]: about 15% | renal excretion of GHB, increase ([1]; upon co-administration of valproate): 30% | PD effects (healthy subjects; GHB and diclofenac concomitantly administered): significantly reduced | Digit Vigilance Accuracy, change from baseline (healthy subjects; Xyrem co-dosed with diclofenac vs Xyrem alone, at 1 and 2.5 h): significantly less impairment than Xyrem® alone | Power of Attention, change from baseline (healthy subjects; Xyrem co-dosed with diclofenac vs Xyrem alone, at 1 and 4.5 h): narrowly missed significance | Power of Attention, change from baseline (healthy subjects; Xyrem co-dosed with diclofenac vs Xyrem alone, at 0.5 h): significantly less impairment than Xyrem® alone | Power of Attention, change from baseline (healthy subjects; Xyrem co-dosed with diclofenac vs diclofenac alone, 6.5 h and 8 h): impairments at two timepoints compared to diclofenac alone which at 6.5 h was significant and a trend at 8 h | Choice Reaction Time Mean, impairments (healthy subjects; in vivo): significantly smaller than with Xyrem® alone | Digit Vigilance Mean Reaction Time, change from baseline (healthy subjects; in vivo): significantly less impairment than Xyrem® alone | absorption into and elimination from the systemic circulation [2]: fast processes | unchanged drug recovered in the urine [2]: Virtually no unchanged drug could be recovered in the urine | oral absorption and elimination processes, dose dependency [3]: capacity-limited though the degree of dose dependency was moderate | plasma levels, lower ([4]; GHB concomitantly administered with ibuprofen, statistically significant): ~5% | renal excretion of GHB ([4]; concomitant administration of ibuprofen): doubled
